Reference: patent US20160002250A1, “POLYMORPHS AND SALTS OF A COMPOUND” (FORUM Pharmaceuticals Inc., priority 2013, published 2016)
In brackets after ≈: the same amount, converted by molar mass. Read-outs that look alike come from different tables or passages of the source.

Assays:
[1] = pKa determination (Sirius GlpKa); format: physicochemical; conditions: 25° C.
Experimental: Data were collected on a Sirius G1pKa instrument with a D-PAS attachment. Measurements were made at 25° C. in aqueous solution by UV and in methanol water mixtures by potentiometry. The titration media was ionic-strength adjusted (ISA) with 0.15 M KCl (aq). The values found in the methanol water mixtures were corrected to 0% co-solvent via a Yasuda-Shedlovsky extrapolation. The data were refined using Refinement Pro software v2.2. Prediction of pKa values was made using ACD/Labs software.

[2] = Log P determination (potentiometric titration); format: physicochemical; conditions: octanol/ionic-strength adjusted (ISA) water
Source text: Data were collected by potentiometric titration on a Sirius G1pKa instrument using three ratios of octanol:ionic-strength adjusted (ISA) water to generate Log P, Log Pion, and Log D values. The data were refined using Refinement Pro software. Prediction of Log P values was made using ACD/Labs software.

[3] = Thermodynamic aqueous solubility; conditions: for solubility at 24 h: 25 °C, thermodynamic from solid
Experimental: The suspension was equilibrated at 25° C. for 24 hours then the pH was measured and adjusted with either HCl or NaOH if it deviated by more than 0.3 units from the target pH. The suspension was then filtered through a glass fiber C filter. […] Different volumes of the standard, diluted and undiluted sample solutions were injected.
Analysis was performed on an Agilent HP1100 series system equipped with a diode array detector and using ChemStation software. The following buffers were prepared to carry out the solubility analyses:
pH 1.2—made up by adding 85.0 mL of 0.2M HCl(aq) to 50 mL of 0.2M KCl(aq) and making up to 200 mL. pH 4.5—made up by adding 2.99 g of NaC2H3O2.3H2O to 14.0 mL of 2N AcOH(aq) and making up to 1000 mL. pH 7.4—made up adding 39.1 mL of 0.2M NaOH(aq) to 50.0 mL of a 0.2M KH2PO4 and making up to 200 mL.

CC1(C)OC(c2ccncc2)=C(c2ccc(OCc3cn4ncccc4n3)cc2)C1=O [Free Base, 4-(4-(imidazo[1,2-b]pyridazin-2-ylmethoxy)phenyl)-2,2-dimethyl-5-(pyridin-4-yl)furan-3(2H)-one]
pKa ([1]; read-out: pKa (first of two basic centers)): 3.7
pKa ([1]; read-out: pKa (second of two basic centers)): 2.9
logP [2]: 3
solubility at 24 h ([3]; aqueous buffer, pH 1.2, simulated gastric fluid): 12200 µg/mL (≈ 29600 µM)
solubility at 24 h ([3]; aqueous buffer, pH 4.5, aqueous buffer): 90 µg/mL (≈ 218 µM)
solubility at 24 h ([3]; aqueous buffer, pH 7.4, aqueous buffer): 50 µg/mL (≈ 121 µM)
pH of unfiltered saturated solution ([3]; pH point 1.2): 1.24
pH of unfiltered saturated solution ([3]; pH point 4.5): 4.71
pH of unfiltered saturated solution ([3]; pH point 7.4): 7.44
pH of unfiltered saturated solution ([3]; pH point unadjusted aqueous): 6.19
solubility at 24 h ([3]; water (unadjusted aqueous), water): 60 µg/mL (≈ 145 µM)
